Measurements taken from paper PMC7796031, “Studies of Coumarin Derivatives for Constitutive Androstane Receptor (CAR) Activation” (Molecules, 2020).

Tests used:
[1] = Preliminary pharmacokinetic study, plasma concentration by RP-HPLC-fluorescence; assay type: in vivo, C57BL/6 mice; settings: for desired plasma concentration (10 μM) reached: dose 0.5 mg/mouse, desired ~2 μg/mL for scoparone, ~3 μg/mL for 50
Text: S23 Preliminary pharmacokinetic studies of scoparone and 6,7-diprenoxycoumarin
Table S1 Blood concentration of scoparone. mouse Dose given (mg) Body weight (g) Time (min) Cal. Conc. (µg/ml) […]
Table S2 Blood concentration of 6,7-diprenoxycoumarin.
Adopt previous study on fraxetin (unpublished result) , a coumarin compound, RP -HPLC -fluorescence method (excitation 380 nm and emission 480 nm ) was applied on analysis of the concentration of scoparone and 6,7 -diprenoxycoumarin. […]
without interference with endogenous plasma constituents. […]
retention time of approximately 7.51 in mouse plasma.
0.01 to 10.00 µg/ml for scoparone and 0.025 to 6.25 µg/ml for 6,7 -diprenoxycoumarin. The relativ e error and coefficient of variance are all below 15 %. The LOQ were 0.01 and 0.005 µg/ml for scoparone and 6,7 - diprenoxycoumarin. Linearity over the investigated concentration was obtained.
After method validation, C57BL/6 mice were given scoparone (i.p.) or 6,7 -diprenoxycoumarin and plasma […]
In pharmacological assay, the desired scoparone […]
the amount of drug increased to 0.5 mg/mice. Thus, the CAR activating effect may not be seen in vivo, which can account for no blood sugar lowering effects of 6,7-diprenoxycoumarin in vivo.
Acetonitrile HPLC-grade (LiChrosolv® ) were purchased from Sigma-Aldrich Chemie GmbH. Deionized water was purified on a Milli-Q system. Scoparone and 6,7-diprenoxycoumarin were synthesized from our […]
lab and purity was > 95 % from HPLC-UV method.
Instrumentation and Chromatographic Condition
Hitachi L-7100 liquid chromatography system (Hitachi, Japan) comprised a Hitachi D-7000 interface, a Hitachi L-7200 auto sampler, a Hitachi L-7400 UV detector and a Hitachi L-2480 FL detector. The HPLC colum consisted of a Thermo Hypurity® RP-18 column (200 × 4.6 mm, 5 µm) connected to a Hichrom ODS guard column. The isocratic elution was applied for scoparone (ACN-H2O = 3:7) and 6,7-diprenoxycoumarin (ACN-H2O = 7:3). The flow rate was set at 1.0 ml/min. The detection fluorescence was set at excitation 380 nm and emission 480 nm. A volume of 20 µL of sample was subjected to HPLC for […]
Animals and Sample Preparation
Eight-week old male or female C57/BL6 mice were acquired from BioLASCO Taiwan Co., Ltd. Experimental animals were allowed to acclimate to the controlled photoperiod (a cycle of 12-hr light/ 12-hr dark), humidity (40-60% relative humidity) and temperature (22 ± 2 °C) with ad libitum supply of standard chow diets and drinking water for one week prior to the experimental treatment in accordance with the Guide for the Care and Use of Laboratory Animals (Institute of Laboratory Animal Resources Commission on Life Sciences, 2011). Acclimated animals were randomly separated into two groups: scoparone-treated or 6,7-diprenoxycoumarin-treated. Mice were administered indicated dose i.p. All mice were anesthetized with Zoetil (10 mg/ml, 0.05 ml/10 gmbw, i.p.) before blood sampling. The blood samples (approximately 300 µL) were […]
centrifuging at 10,000 rpm for 10 min, the plasma samples were obtained. The plasma (50 µL) was mixed with 150 µL ACN, vortexed, and centrifuged for […], 10 mins and at 4 °C. The supernatant was obtained and 20 µL of sample was subjected to HPLC analysis.
Institute of Laboratory Animal Resources Commission on Life Sciences, National Research Council. In Guide for the Care and Use of Laboratory Animals, 8th ed.; National Academy Press: Washington, DC, 2011.

MRP2 = assay: Protein expression of MRP2 (western blot); assay type: cell-based, human
Method: Figure 7 The protein expressions of MRP2 after 6,7-diprenoxycoumarin (50) treatment. Hep3B cell (1 × 10^6) were treated with 50 (5, 10, 20 and 40 μM) for 24 h. Treated cell lysates were prepared as described in the Methods section and the expression of MRP2 was analyzed by western blot.
(§1) 1 × 10^6 cells were seeded in a 10 cm plate, incubated at 37 °C for overnight and treated with various concentrations of compounds for the indicated times. After incubation, the culture medium was removed and washed twice with 2 mL ice-cold 1× PBS. Three hundred μL of protein lysis buffer (150 mM NaCl, 50 mM Tris-HCl (pH 7.4), 1% SDS, 1% Triton X-100, 1 mM PMSF) was added into each plate, scraped with a rubber policeman, collected into a premarked microtube and the incubated in ice for 1 h, sonicated by Ultrasonic Cell Disruptor for three time at 5 s each. The cell lysated was cleared by centrifugation at 12,000× g for 15 min at 4 °C. Supernatants were transferred into a fresh marked microtube and stored at −20 °C for future use.
(§2) Protein concentration of each sample was determined using a BCA Protein Assay Kit (Pirece®, Thermo Scientific). Different percentages of SDS-PAGE gels were prepared according to the molecular size of proteins of interest. After complete polymerization of stacking gels, each sample with equal amount of total protein was separated in polyacrylamide gels (stacking gel: 50 v, 60 min; separating gel: 100 v, 60 min). After separating, wet-transfer method was utilized to transfer proteins onto the PVDF membrane. The gels were assembled in the transfer sandwich and put in a transfer tank filled with transfer buffer (25 mM glycine, 0.15% ethanolamine, 20% methanol). The electro-transfer was performed at the voltage of 100 volt for 80 min at 4 °C. After transfer, PVDF-membrane was blocked with 5% BSA in 1× TBS-Tween at room temperature for 1 h. Membrane was washed with 10 mL 1× TBS-Tween three times and incubated with primary antibodies overnight at 4 °C with gentle agitation. […] The emitted fluorescence from the membrane was caught on a LAS-4000 biomolecule imager (FUJI.).

UGT1A1 = assay: Protein expression of UGT1A1 (western blot); assay type: cell-based, human
Method: as §1
as §2, with “agitation. After primary antibody was removed, the membrane was washed three times with 10 mL 1× TBS-Tween for 10 min at room temperature with constant shaking.” for “agitation.”

[2] = Figure 2, after scoparone or CITCO treatment

| SMILES | Blood concentration, Cal. Conc. ([1]; Table S2, Study 1 mouse 1, dose given 0.36 mg i.p., 10 min) [ng/mL] | Blood concentration, Cal. Conc. ([1]; Table S2, Study 1 mouse 2, dose given 0.36 mg i.p., 60 min) [ng/mL] | Blood concentration, Cal. Conc. ([1]; Table S2, Study 1 mouse 3, dose given 0.36 mg i.p., 110 min) [ng/mL] | Blood concentration, Cal. Conc. ([1]; Table S2, Study 1 mouse 4, dose given 0.36 mg i.p., 360 min) [ng/mL] | Blood concentration, Cal. Conc. ([1]; Table S2, Study 2 mouse 1, dose given 0.5 mg i.p., 11 min) [ng/mL] | Blood concentration, Cal. Conc. ([1]; Table S2, Study 2 mouse 2, dose given 0.5 mg i.p., 60 min) [ng/mL] | Blood concentration, Cal. Conc. ([1]; Table S2, Study 2 mouse 3, dose given 0.5 mg i.p., 318 min) [ng/mL] | desired plasma concentration (10 μM) reached [1] | protein expression level of MRP2 (MRP2; Hep3B, 5, 10, 20 and 40 μM, 24 h) | UGT1A1 protein level (UGT1A1; Hep3B) | Blood concentration, Cal. Conc. ([1]; Table S1, Study 1 mouse 1, dose given 0.2 mg i.p., 10 min) [ng/mL] | Blood concentration, Cal. Conc. ([1]; Table S1, Study 1 mouse 2, dose given 0.2 mg i.p., 60 min) [ng/mL] | Blood concentration, Cal. Conc. ([1]; Table S1, Study 1 mouse 3, dose given 0.2 mg i.p., 315 min) [ng/mL] | Blood concentration, Cal. Conc. ([1]; Table S1, Study 2 mouse 3, dose given 0.5 mg i.p., 320 min) [ng/mL] | protein expression of MRP2 (CAR downstream gene) (MRP2; [2]) | protein expression of UGT1A (CAR downstream gene) (UGT1A1; [2]) |
| --- | --- | --- | --- | --- | --- | --- | --- | --- | --- | --- | --- | --- | --- | --- | --- | --- |
| CC(C)=CCOc1cc2ccc(=O)oc2cc1OCC=C(C)C [Compound 50, 6,7-diprenoxycoumarin] | 560 | 80 | 70 | 40 | 310 | 120 | 27 | cannot be obtained | enhanced | not significantly increased |  |  |  |  |  |  |
| COc1cc2ccc(=O)oc2cc1OC [Compound 39, scoparone] |  |  |  |  |  |  |  | can be achieved |  |  | 410 | 260 | 40 | 40 | upregulated | upregulated |
